Values quoted from earlier work, collected in patent US20020040051A1, “Solid dispersion of ipriflavone for oral administration and its manufacturing methods” (priority 2000, published 2002).
Values after ≈ are worked out from the molar mass of the structure shown.

Experiments:
[1] = 200 mg 3-4 times daily (600-800 mg daily), healthy adult male (18-60 yr); cited from earlier work
[2] = cited from earlier work

CC(C)Oc1ccc2c(=O)c(-c3ccccc3)coc2c1 [compound 1, 3-phenyl-7-isopropoxy-4H-1-benzopyrane-4-one]
day of administration on which blood concentration reaches an effective level [1]: 3rd or 4th day
water solubility [2]: 1 µg/mL (≈ 3.57 µM)
